Measurements reported in publication PMC6597546, “Identification of a potent benzoxaborole drug candidate for treating cryptosporidiosis” (Nature Communications, 2019).
pEC50: −log10 of the molar value. Where “and” joins values, the source holds several entries; their conditions need not be identical. Identical values can stand only once. Like-named read-outs stand apart in the source and are kept apart here.

Key:
[1] = test system: C. parvum; experiment: C. parvum growth inhibition in HCT-8 cells (follow-up assay, Vicia villosa lectin staining); assay type: cell-based, Cryptosporidium parvum
Experimental: Follow-up assays were performed at the University of Vermont (UVM) and Calibr at Scripps Research by infection of the colonic adenocarcinoma cell line HCT-8 (ATCC CCL-244) and staining with the Vicia villosa lectin and DAPI[17],[32]. The FBS concentrations and parasites used for these assays were as indicated; parasite isolates and sources included C. parvum Iowa isolate oocysts purchased from Bunch Grass Farm (Deary, ID), C. parvum Iowa isolate oocysts purchased from the Sterling Laboratory (University of Arizona, Tucson, AZ), wild type C. parvum oocysts provided by Dr. Jenni Zambriski (Virginia Tech, Blacksburg, VA), and the C. hominis TU502 isolate purchased from Dr. Saul Tzipori (Tufts University Cummings School of Veterinary Medicine, North Grafton, MA). […] Amphotericin B (Sigma, catalog# A2942) was added to the culture media at 0.1 to 0.5 µg per mL for the DMC1 dose response assays.

[2] = test system: C. parvum (Bunch Grass Farms Iowa isolate); experiment: NOD scid gamma (NSG) mouse model of established C. parvum infection; assay type: in vivo, NOD scid gamma mice; conditions: for reduction of parasite shedding: after 4 days of treatment
Experimental: NOD scid gamma mice (NOD.Cg-Prkdcscid Il2rgtm1Wjl/SzJ)[55] (NSG) were used to model chronic Cryptosporidium infection. All NSG mouse studies were performed in compliance with animal care guidelines and with approval by the University of Vermont Institutional Animal Care and Use Committee. NSG mice with normal flora were purchased from The Jackson Laboratory (Bar Harbor, ME) and were housed for at least a week for acclimatization. […] Fecal parasite shedding was measured using a quantitative PCR (qPCR) assay, and the primers named above as Cp18s forward and Cp18s reverse.

[3] = test system: C. parvum DMC1 positive parasites; experiment: Asexual-to-sexual stage conversion assay (DMC1 expression); assay type: cell-based, Cryptosporidium parvum
Experimental: The invasion assay, DNA replication assay, asexual to sexual stage conversion, and time-kill curve assays were performed using fluorescence microscopy to enumerate parasites and host cell nuclei. Staining protocols are individually described for each assay. Unless noted otherwise, the details of image acquisition were as follows. An inverted Nikon Eclipse Ti2000 microscope with an automated stage and Perfect Focus was used with NIS-Elements Advanced Research software (Nikon, USA, version 4.30.01) to image the wells. The microscope was programmed to focus on the center of each well and then take a 3 × 3 composite image per well using a 20 × (0.45 NA) objective. Images were exported as .tiff files and parasites and host nuclei counted using a custom macro on ImageJ (National Institutes of Health, version 1.52a). Data were analyzed using Microsoft Excel and GraphPad Prism (version 6.01). […] Amphotericin B (Sigma, catalog# A2942) was added to the culture media at 0.1 to 0.5 µg per mL for the DMC1 dose response assays.

[4] = test system: C. hominis TU502 isolate; experiment: C. hominis growth inhibition in HCT-8 cells; assay type: cell-based, Cryptosporidium hominis; conditions: single replicates, unit inferred, read-out: In vitro efficacy (Fig 2b, EC50)
Experimental: Follow-up assays were performed at the University of Vermont (UVM) and Calibr at Scripps Research by infection of the colonic adenocarcinoma cell line HCT-8 (ATCC CCL-244) and staining with the Vicia villosa lectin and DAPI[17],[32]. The FBS concentrations and parasites used for these assays were as indicated; parasite isolates and sources included C. parvum Iowa isolate oocysts purchased from Bunch Grass Farm (Deary, ID), C. parvum Iowa isolate oocysts purchased from the Sterling Laboratory (University of Arizona, Tucson, AZ), wild type C. parvum oocysts provided by Dr. Jenni Zambriski (Virginia Tech, Blacksburg, VA), and the C. hominis TU502 isolate purchased from Dr. Saul Tzipori (Tufts University Cummings School of Veterinary Medicine, North Grafton, MA).

[5] = Plasma Protein Binding (mouse); assay type: in vitro ADME; conditions: read-out: Plasma Protein Binding (PPB) (converted)
[6] = 7-day repeated oral dose toxicity study in rats
Experimental: A repeated oral dose toxicity and separate toxicokinetics (TK) study were performed in male rats by WuXi AppTec Company (Suzhou, China). […] Animals were individually housed in solid bottom plastic cages with bedding in compliance with the US Animal Welfare Act. All rat studies were performed using ∼8-week-old Sprague-Dawley male rats (Rattus novegicus)/Crl: CD[SD] […] Cage side clinical observations of condition and behavior (i.e., gait, stool, activity level, atonia, coat soiling and grooming, skin turgor, posture, priapism, piloerection) were performed twice daily during the dosing phase, and weights and food consumption were measured daily. At termination, all study animals were evaluated for erythrocyte count, absolute reticulocyte count, alkaline phosphatase, and triglycerides by fasting the animals overnight and obtaining blood from the abdominal aorta at necropsy as a terminal procedure under deep anesthesia (pentobarbital). A complete necropsy and histopathologic studies (hematoxylin and eosin staining) of large intestine, small intestine, stomach, and any gross lesions were performed on all animals on day 7 of dosing. […] Serum was collected from vehicle-control animals at 1 h and 4 h after dosing on days 1 and 7. […] Following completion of blood collection, TK animals were euthanized by CO2 inhalation and exsanguination without necropsy.

[7] = Cytotoxicity murine L929 (3d); assay type: cell-based; conditions: mouse, L929 cells, 25 µM highest concentration tested
[8] = Liver microsome Clint (human); assay type: in vitro ADME; conditions: liver microsomes
[9] = target: T1, hERG K+ ion channel (Homo sapiens, UniProt Q12809); experiment: hERG radioligand binding competition; conditions: 10 µM test compound, 1 h at 25 °C
T1 construct: Ricerca Biosciences (Taipei, Taiwan), contract laboratory
Experimental: In vitro safety profiling studies were conducted by Ricerca Biosciences (Taipei, Taiwan) and WuXi AppTec (Suzhou, China). Ricerca performed a Lead Profiling and Adverse Reaction Enzyme panel of 109 off-target enzymes and receptors. This included the hERG K+ ion channel, which is associated with cardiac tachyarrhythmias, and used a radioligand binding competition format with 10 µM test compound for 1 h at 25 °C. For the enzyme and receptor panel, competitive inhibition at 10 µM of test compound was the most common assay format. The AMES bacterial reverse mutation assay detects point mutations in Escherichia coli and Salmonella typhimurium as an indicator of mutagenic activity. Bacterial strains were obtained from Molecular Toxicology (Boone, NC).

[10] = Cytotoxicity Jurkat (3d); assay type: cell-based; conditions: human, Jurkat cells, 25 µM highest concentration tested

T1 sequence (Q12809 whole entry): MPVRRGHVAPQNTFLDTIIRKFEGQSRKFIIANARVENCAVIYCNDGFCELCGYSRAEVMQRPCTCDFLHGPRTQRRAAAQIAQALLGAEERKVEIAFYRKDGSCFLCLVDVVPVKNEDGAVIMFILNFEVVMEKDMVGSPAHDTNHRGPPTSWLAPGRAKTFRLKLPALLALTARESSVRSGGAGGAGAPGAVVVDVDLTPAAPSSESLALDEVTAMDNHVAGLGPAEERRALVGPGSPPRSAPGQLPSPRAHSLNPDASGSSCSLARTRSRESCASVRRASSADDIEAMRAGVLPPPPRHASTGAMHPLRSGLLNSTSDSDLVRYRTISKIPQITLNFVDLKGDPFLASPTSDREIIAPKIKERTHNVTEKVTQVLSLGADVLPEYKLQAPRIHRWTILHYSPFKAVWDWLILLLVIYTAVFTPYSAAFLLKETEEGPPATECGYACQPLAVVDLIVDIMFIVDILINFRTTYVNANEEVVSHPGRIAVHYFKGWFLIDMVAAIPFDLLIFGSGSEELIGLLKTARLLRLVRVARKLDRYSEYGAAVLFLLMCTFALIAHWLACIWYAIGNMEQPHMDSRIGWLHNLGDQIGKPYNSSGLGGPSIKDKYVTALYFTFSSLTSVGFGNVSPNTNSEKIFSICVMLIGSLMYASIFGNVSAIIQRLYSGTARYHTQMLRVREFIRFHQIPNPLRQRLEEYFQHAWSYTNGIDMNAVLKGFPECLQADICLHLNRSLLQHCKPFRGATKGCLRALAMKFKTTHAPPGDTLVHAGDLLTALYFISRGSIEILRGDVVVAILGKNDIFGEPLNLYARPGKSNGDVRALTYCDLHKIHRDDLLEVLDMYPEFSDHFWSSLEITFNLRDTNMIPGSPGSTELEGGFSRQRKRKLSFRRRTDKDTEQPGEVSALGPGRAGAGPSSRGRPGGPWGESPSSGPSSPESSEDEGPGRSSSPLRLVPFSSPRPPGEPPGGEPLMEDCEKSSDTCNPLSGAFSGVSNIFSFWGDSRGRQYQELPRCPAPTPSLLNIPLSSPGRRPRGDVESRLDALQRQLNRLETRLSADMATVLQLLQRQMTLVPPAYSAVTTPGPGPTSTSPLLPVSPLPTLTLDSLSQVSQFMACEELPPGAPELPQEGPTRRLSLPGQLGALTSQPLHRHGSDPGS

## CC1(C)OB(O)c2cc(NC(=O)c3ccc(-n4cccn4)cc3Cl)ccc21 [AN7973]
[1]; Bunch Grass Farm (BGF) C. parvum Iowa isolate, HCT-8 cells, 48 h exposure, read-out: EC50
  pEC50: 6.89
[1]; Cryptosporidium parvum, HCT-8, in Vicia villosa, 48 h, Bunch Grass Farm (BGF) C. parvum Iowa isolate, HCT-8 cells, 48 h exposure, read-out: EC50
  pEC50: 6.37 to 6.89
[1]; Cryptosporidium parvum, HCT-8, in Vicia villosa, Iowa (BGF, 10%FBS), HCT-8, single replicates, unit inferred, read-out: In vitro efficacy (Fig 2b, EC50)
  pEC50: 6.94
[1]; Cryptosporidium parvum, HCT-8, in Vicia villosa, read-out: In vitro efficacy (Fig 2b, EC50)
  pEC50: 6.44
[1]; Cryptosporidium parvum, in Vicia villosa, BGF Iowa isolate, HCT-8
  EC90: 210 nM
[1]; Field isolate (2%FBS), HCT-8, single replicates, unit inferred, read-out: In vitro efficacy (Fig 2b, EC50)
  pEC50: 6.65 and 6.64 and 6.17 and 6.52
[1]; Iowa (BGF, 2%FBS), HCT-8, single replicates, unit inferred, read-out: In vitro efficacy (Fig 2b, EC50)
  pEC50: 6.34 and 6.22 and 6.63 and 6.48
[1]; Iowa (BGF, 10%FBS), HCT-8, single replicates, unit inferred, read-out: In vitro efficacy (Fig 2b, EC50)
  pEC50: 6.79 and 6.89
[1]; Iowa (Sterling Lab, 2%FBS), HCT-8, single replicates, unit inferred, read-out: In vitro efficacy (Fig 2b, EC50)
  pEC50: 6.39 and 6.69 and 6.54 and 6.34 and 6.63
[1]; log [AN7973] 0.22
  % inhibition, 0 - 48 h V. villosa lectin (asexual): 97.86% and 96.89%
[1]; log [AN7973] 0.52
  % inhibition, 0 - 48 h V. villosa lectin (asexual): 97.05% and 95.66%
[1]; log [AN7973] 0.70
  % inhibition, 0 - 48 h V. villosa lectin (asexual): 95.89% and 94.55%
[1]; log [AN7973] 1.00
  % inhibition, 0 - 48 h V. villosa lectin (asexual): 95.12% and 93.55%
[1]; log [AN7973] -0.25
  % inhibition, 0 - 48 h V. villosa lectin (asexual): 95.71% and 93.12%
[1]; log [AN7973] -0.73
  % inhibition, 0 - 48 h V. villosa lectin (asexual): 85.80% and 82.68%
[1]; log [AN7973] -1.69
  % inhibition, 0 - 48 h V. villosa lectin (asexual): -8.97% and -7.81%
[1]; log [AN7973] -2.16
  % inhibition, 0 - 48 h V. villosa lectin (asexual): -1.87% and -6.19%
[2]; 10 mg per kg once daily oral gavage
  reduction of parasite shedding: > 90%
[2]; 10 mg/kg, D7 (before treatment)
  parasite fecal shedding (qPCR), individual mice: 58.681 oocysts/mg feces and 43.169 oocysts/mg feces and 158.993 oocysts/mg feces and 120.558 oocysts/mg feces
[2]; 10 mg/kg, D11
  parasite fecal shedding (qPCR), individual mice: 7.142 oocysts/mg feces and 1.830 oocysts/mg feces and 16.882 oocysts/mg feces and 7.589 oocysts/mg feces
[2]; 25 mg per kg once daily oral gavage
  reduction of parasite shedding: > 99%
[2]; 25 mg/kg, D7 (before treatment)
  parasite fecal shedding (qPCR), individual mice: 379.464 oocysts/mg feces and 632.650 oocysts/mg feces and 267.595 oocysts/mg feces and 299.397 oocysts/mg feces
[2]; 25 mg/kg, D11, ND = not detected, lower limit of detection 0.1
  parasite fecal shedding (qPCR), individual mice: 0.825 oocysts/mg feces
[2]; treated NSG mice gained weight normally
  adverse effects in NSG mice: no adverse effects were observed
[3]; Cryptosporidium parvum, BGF Iowa isolate, HCT-8, 10% FBS, DMC1, interval in parentheses, read-out: EC50 asexual-to-sexual conversion (48–72 h)
  pEC50: 6.32
[3]; log [AN7973] (M) 0.10
  % inhibition, 48 - 72 h DMC1 (asexual to sexual conversion): 95.75%
[3]; log [AN7973] (M) 0.28
  % inhibition, 48 - 72 h DMC1 (asexual to sexual conversion): 95.64% and 78.65%
[3]; log [AN7973] (M) 0.40
  % inhibition, 48 - 72 h DMC1 (asexual to sexual conversion): 95.48%
[3]; log [AN7973] (M) -0.20
  % inhibition, 48 - 72 h DMC1 (asexual to sexual conversion): 85.62% and 65.23% and 46.69%
[3]; log [AN7973] (M) -0.68
  % inhibition, 48 - 72 h DMC1 (asexual to sexual conversion): -48.74% and -54.94% and -50.77%
[3]; log [AN7973] (M) -0.93
  % inhibition, 48 - 72 h DMC1 (asexual to sexual conversion): -98.53%
[3]; log [AN7973] (M) -1.23
  % inhibition, 48 - 72 h DMC1 (asexual to sexual conversion): -40.27%
[3]; log [AN7973] (M) -1.53
  % inhibition, 48 - 72 h DMC1 (asexual to sexual conversion): -58.48%
[3]; log [AN7973] (M) -2.01
  % inhibition, 48 - 72 h DMC1 (asexual to sexual conversion): -35.29%
[3]; log [AN7973] (M) -2.48
  % inhibition, 48 - 72 h DMC1 (asexual to sexual conversion): -28.64%
[4]; C. hominis (Tu502, 2%FBS)
  pEC50: 6.24
[4]; Cryptosporidium hominis, HCT-8, C. hominis (Tu502, 2%FBS)
  pEC50: 6.12
[5]
  fraction unbound: 0.011
[6]; 80 mg per kg per day oral gavage, seven days, male rats
  tolerability in rats: well tolerated
[6]; 80 mg·kg-1·d-1, mean ± SD
  Alkaline phosphatase on day 8: 188 ± 17 U·L-1
  Average weight on day 1: 260.24 g
  Average weight on day 7: 305.36 ± 8.8 g
  Reticulocyte count on day 8: 563.2 ± 66.6 ×10^9 per L
  Total food consumption (days 1-7): 156.1 ± 10.1 g
  Triglycerides on day 8: 0.39 ± 0.16 mmol/L
[6]; 80 mg·kg-1·d-1, n=5
  Mortality (unscheduled deaths): 0
[7]
  IC50 at 3 d: > 25 µM
[8]
  microsomal CLint: < 1 µL/min/mg
[9]
  hERG inhibition: negative
[10]
  IC50 at 3 d: > 25 µM
